Measurements taken from patent publication US20260083789A1, “FORMULATION FOR STIMULATING HAIR GROWTH AND IMPROVING QUALITY AND METHOD OF PREPARATION OF THE SAME” (ARJUNA NATURAL PRIVATE LIMITED, priority 2022, published 2026).

Assays:
[1] = test system: Human dermal fibroblasts (HDFa) cells; assay: MTT assay, cell viability / proliferation; assay type: cell-based; conditions: HDFs
Description: Human dermal fibroblasts (HDFa) cells were maintained in DMEM high glucose media (Himedia) with 10% FBS and 40 units/ml of penicillin & 40 μg/mL of streptomycin (Thermo Fisher) in 37° C. humidified chamber with 5% CO2. Cells were passaged after every 2-3 days using trypsin-EDTA.
Cells were trypsinized, centrifuged and resuspended in culture medium. Cells and then counted by trypan blue method using haemocytometer and plated at 5000 cells per 50 μl into wells of a 96 well microtiter plate. The cells were then incubated overnight under conditions appropriate for the cell line for adherence. […] 10 μl MTT reagent was then added to each well, after respective time period followed by incubation for 4 hours. After 4 hours, when the purple precipitate was clearly visible under the microscope, supernatant was removed carefully by pipette and 100 μl of solubilization solution (DMSO) was added to all wells. The plate was shaken softly for 20 minutes in the dark at room temperature. Then, the absorbance was taken of each well, including the blanks, at 570 nm with reference wavelength at 630 nm in a microtiter plate reader. The average values were determined from triplicate readings and subtracted the average value for the blank.

[2] = test system: HDFs; assay: In vitro cell based scratch assay (wound healing); design: species or system human; conditions: negative control 89.798 %
Description: In vitro cell based scratch assay is one of the most apt and economic procedures for preliminary examination of wound healing potential of any medicinal extract. […] Cell migration was monitored at 0 hour, 24 hours and 48 hours and wound closure distance was calculated by Image J software.

Nc1cc(N2CCCCC2)nc(N)[n+]1[O-] [Minoxidil, 2,4-diamino-6 piperidino-pyrimidine-3-oxide]
time at which cell proliferation peaked [1]: 72 h | time to show efficacy / increase the rate of cell proliferation [1]: 48 h | cell proliferation in relation to concentration ([1]; in contrast to the extract): increased cell proliferation at lower concentrations | closure of the gap created by the scratch [2]: 89.358%
